pEC50: −log10 of the molar value.
Experiments:
[1] = tested on: respiratory syncytial virus (RSV) strain Long; test: microbe, parasite or virus in culture; conditions: human respiratory syncytial virus, HEp-2, 144 h
Experimental: The assay measures RSV virus-induced CPE in HEp-2 cells using cell viability as the end point.
Two vials of RSV (strain Long) containing 1×10^7 pfu/mL was thawed using an Eppendorf thermomixer for 13 min at 15° C., with shaking at 350 rpm. […] The cells were incubated for 18-20 h at 37° C., 5% CO2, 90% relative humidity. The medium was aspirated and the cells washed with 10 mL PBS without Mg^2+ or Ca^2+. Cells were harvested from flasks using 0.25% trypsin-EDTA. The cells were resuspended in a freezing medium of 95% fetal calf serum and 5% DMSO to a final cell density of 2×10^6 cells/mL. One mL aliquots of this virus infected cell suspension were dispensed to cryovials and cells were rate frozen to −80° C. Frozen infected cells were then transferred to −150° C. for long term storage.
Test compounds were evaluated by measuring their antiviral activity, cell toxicity, and selectivity. Test compounds were serially diluted in a plate to plate matrix or “stacked plate” matrix. All 320 compounds in a source plate were diluted together resulting in a 10 point dose response dilution series. It was visualized as a serial dilution series proceeding vertically through a stack of plates with the high dose plate on top and the low dose plate on the bottom.
Cells were harvested and resuspended to 80,000 cells per ml in Complete DMEM/F12.
Cells were thawed in a room temperature water bath with gentle agitation. The tube was inverted 5-10. Cells were diluted to 80,000 cells per ml by adding the contents of the vial to 24 ml of cold (4° C.) media.
Twenty five ul of uninfected HEp-2 cells were plated in the cell control wells. Frozen infected cells were combined with uninfected HEp-2 cells at a 1:100 ratio. Twenty five ul of the cell mixture was added to the virus control and compound wells. All cell plating was conducted using a Matrix WellMate and cells were maintained at room temperature with stirring during the plating process. The assay plates were incubated for six days at 37° C., 5% CO2 and 90% relative humidity.
Following the six day incubation period, the assay plates were equilibrated to room temperature for 30 min and an equal volume (30 μL) of Cell Titer-Glo reagent (Promega Inc.) was added to each well using a WellMate (Matrix, Hudson, N.H.) and plates were incubated for an additional 10 min at room temperature. At the end of the incubation, luminescence was measured using a Perkin Elmer Envision™ multi-label reader (PerkinElmer, Wellesley, Mass.) with an integration time of 0.1 s.
Data was analyzed using ActivityBase software (IDBS, Inc, Guilford, UK). thirty two control wells containing cells only and twenty four wells containing cells and virus were included on each assay plate and used to calculate Z′ value for each plate and to normalize the data on a per plate basis. […] Eight ribavirin positive control wells were included on each plate for quality control purposes, but were not used in Z′ calculations. […] In the toxicity assay, results are described as percent viability and the calculation is the same.
An EC50 (for CPE inhibition) and IC50 (for cell viability) were calculated for each substance using the 4 parameter Levenburg-Marquardt algorithm with parameter A locked at 0 and parameter B locked at 100. Standard deviation, normalized chi2 and hill slope were used to evaluate the curves. Values were not extrapolated beyond the tested range of concentrations.

[2] = cytotoxicity assay (percent viability of HEp-2 cells, Cell Titer-Glo); conditions: human, HEp-2 cells

EC50 [1] [µg/mL] | pEC50 [1] | Structure (SMILES) | CC50 at 6 days [2]
19.6 | – | O=c1[nH]cnc2sc3c(c12)CCCCC3 [AB00276706] | > 25 µg/mL
19.6 | – | O=C(NC1=NCCS1)c1cc2c(s1)CCCCCC2 [AB00367559] | > 25 µg/mL
11.6 | – | CCOc1nc2sc3c(c2c2ncnn12)CCCC3 [AB00372085] | > 25 µg/mL
– | 4.94 | Cc1cccc(NC(=O)COC(=O)c2ccc(F)cc2N)c1C [AB00756405] | > 50 µM
20.7 | – | CC(=O)CCc1c(C)nc2ccc(Br)cc2c1S [AB00279343] | > 25 µg/mL
21.1 | – | Cc1cc(C)cc(OCC(=O)N2CCc3ccccc3C2)c1 [AB00315731] | > 25 µg/mL
18.1 | – | COc1ccc(C(=O)N2CCC(C(=O)Nc3cccc(Br)c3)CC2)cc1 [AB00299547] | > 25 µg/mL
22.5 | – | Cc1ccc2nc(SCCC#N)nc(C)c2c1 [AB00284847] | > 25 µg/mL
12.6 | – | CCC(=O)Nc1ccc(C(=O)OCc2cccc(F)c2)cc1 [AB00363859] | > 25 µg/mL
17.3 | – | c1ccc(-c2cc3c(N4CCN(c5ccccc5)CC4)ncnc3s2)cc1 [AB00306917] | > 25 µg/mL
21.2 | – | CC(=O)c1cccc(NC(=S)NNC(=S)Nc2ccc(F)cc2F)c1 [AB00349666] | > 25 µg/mL
24.4 | – | Cc1ccccc1C(=O)NC(=S)Nc1cccc(F)c1 [AB00319373] | > 25 µg/mL
22.3 | – | CC(C)(C)c1ccc(C(=O)N2CCC(C(=O)Nc3ccc4c(c3)OCO4)CC2)cc1 [AB00317272] | > 25 µg/mL
15.1 | – | Cc1ccc(N(CCCCN2C(=O)c3ccccc3C2=O)C(=O)c2cccc(C)c2)cc1 [AB00302020] | > 25 µg/mL
24.5 | – | COC(=O)c1c(-c2ccc(C)cc2)csc1NC(=O)c1ccccc1Br [AB00310224] | > 25 µg/mL
19.5 | – | Cc1cccc(C)c1NC(=O)c1cccc(C(=O)Nc2c(C)cccc2C)n1 [AB00313091] | > 25 µg/mL
19.8 | – | Cc1cc(C)cc(C(=O)Nc2ccc(C#N)cc2)c1 [AB00340723] | > 25 µg/mL
12.7 | – | Cc1nc(N)sc1-c1nnc(Nc2ccccc2)s1 [AB00358926] | > 25 µg/mL
12.3 | – | O=C(c1ccc(Cl)cc1Cl)N1CCCN(C(=O)c2ccc(Cl)cc2Cl)CC1 [AB00309842] | > 25 µg/mL
20.9 | – | CCOc1cc(C2CC(=O)Nc3c2ccc2ccccc32)cc(Cl)c1O (stereo not drawn) [AB00317685] | > 25 µg/mL
– | 4.33 | Cc1noc(C)c1S(=O)(=O)N1CCN(Cc2ccccc2C#N)CC1 [AB00785032] | > 50 µM
10.9 | – | Cc1ccc(-c2csc3nc[nH]c(=O)c23)cc1C [AB00297372] | > 25 µg/mL
20.1 | – | Cc1ccc(NC(=O)CN2CCCC2)c(Br)c1 [AB00358122] | > 25 µg/mL
15.4 | – | O=C(CCN1C(=O)c2cccc3cccc(c23)C1=O)N1CCc2ccccc2C1 [AB00315918] | > 25 µg/mL
22.8 | – | CCCCC(=O)Nc1cccc(NC(=O)c2ccccc2OC)c1 [AB00317410] | > 25 µg/mL

EC50 [1] [µg/mL] | pEC50 [1] | Structure (SMILES) | CC50 at 6 days [2]
– | 4.91 | CSc1ccc(Cl)c(C(=O)Nc2ccc(N3CCCCC3)cc2)c1 [AB00717474] | > 50 µM
23.7 | – | CC(C)(C)c1ccc(C(=O)N2CCC(C(=O)Nc3ccccc3Cl)CC2)cc1 [AB00317604] | > 25 µg/mL
13.2 | – | Cc1sc(NC(=O)CCc2ccccc2)c(C(=O)O)c1C [AB00304690] | > 25 µg/mL
– | 4.42 | COCCn1c(SCC(=O)NC2CCCc3ccccc32)nnc1-c1cccc(C)c1 (stereo not drawn) [AB00728760] | > 50 µM
– | 4.74 | C/C(N)=C(/C#N)C(=O)CSc1nc2sc3c(c2c(=O)n1-c1ccccc1C(F)(F)F)CCCCC3 [AB00728757] | > 50 µM
10.4 | – | Cc1nc(Nc2ccccc2Cl)sc1C(=O)Nc1ccccc1 [AB00299380] | > 25 µg/mL
– | 4.55 | CCc1ccc(Nc2nnc(SCC(=O)Nc3cc(OC)c([N+](=O)[O-])cc3C)s2)cc1 [AB00728303] | > 50 µM
– | 4.38 | CCOC(=O)CCC(NC(=O)c1cnc(NCc2cnc3nc(N)nc(N)c3c2C)s1)C(=O)OCC (stereo not drawn) [AB00375242] | > 50 µM
2.39 | – | COC(=O)C1=C(C)N(Cc2ccccc2)C(=O)NC1c1ccc(C(=O)OC)cc1 (stereo not drawn) [AB00318401] | > 25 µg/mL
21 | – | C=CCN(CC=C)C(=O)c1ccc(OC)c(I)c1 [AB00362750] | > 25 µg/mL
– | 4.97 | COc1ccc(-c2nc(CSc3nnc(C4CC4)n3C3CC3)cs2)cc1 [AB00747970] | > 50 µM
11 | – | Cc1ccc(S(=O)(=O)NC(C(=O)Oc2ccc3c(c2)oc(=O)c2ccccc23)c2ccccc2)cc1 (stereo not drawn) [AB00297982] | > 25 µg/mL
– | 4.57 | C=CCn1c(SC(C)C(=O)Nc2cc(C(F)(F)F)ccc2Cl)nnc1-c1ccccc1OC (stereo not drawn) [AB00741842] | > 50 µM
15.8 | – | O=C(Nc1cccc(C(F)(F)F)c1)c1ccccc1Cl [AB00276634] | > 25 µg/mL
– | 5.94 | C=CC/N=c1\scc(-c2ccc(C)cc2)n1/N=C/c1ccccn1 [AB00718339] | > 50 µM
– | 4.38 | CC(C)(C)C1CCc2nc3ccccc3c(C(=O)OCC(=O)Nc3ccc(C#N)cc3)c2C1 (stereo not drawn) [AB00721928] | > 50 µM
– | 4.41 | Clc1ccccc1OCc1noc(-c2cccs2)n1 [AB00877365] | > 50 µM
24.3 | – | Cc1cccc(NCc2cc(Cl)ccc2O)n1 [AB00317095] | > 25 µg/mL
10.9 | – | Cn1cnnc1SCC(=O)N1c2ccccc2Sc2ccc(C(F)(F)F)cc21 [AB00139215] | > 25 µg/mL
– | 4.73 | O=S(=O)(O)c1cc(/N=N/c2cc(S(=O)(=O)O)c3cccnc3c2O)ccc1CCc1ccc(/N=N/c2cc(S(=O)(=O)O)c3cccnc3c2S)cc1S(=O)(=O)O [AB00444131] | > 50 µM
10.4 | – | COc1ccc(C(=O)NCCc2cccc(Cl)c2)c(OC)c1 [AB00310156] | > 25 µg/mL
16.4 | – | NC(=O)CC1Nc2ccccc2NC1=O (stereo not drawn) [AB00294484] | > 25 µg/mL
22.4 | – | C=CCNC(=O)COc1ccc(Br)cc1C [AB00299924] | > 25 µg/mL
17.1 | – | Cc1cccc(C(=O)Nc2cc(C(C)C)c(O)cc2C)c1 [AB00305611] | > 25 µg/mL
20.3 | – | Cn1c(SCCc2ccccc2)nnc1-c1cccc([N+](=O)[O-])c1 [AB00309238] | > 25 µg/mL

EC50 [1] [µg/mL] | pEC50 [1] | Structure (SMILES) | CC50 at 6 days [2]
18.9 | – | CC(=O)Nc1ccc(C(=O)OCc2ccc(C(C)=O)cc2)cc1 [AB00359127] | > 25 µg/mL
– | 4.68 | O=c1[nH]c(=O)n(Cc2ccc([N+](=O)[O-])cc2)cc1F [AB00173190] | > 50 µM
18.8 | – | Cn1c(SCC(=O)N2c3ccccc3SC3C=CC=CC32)nnc1-c1ccccc1 (stereo not drawn) [AB00370949] | > 25 µg/mL
18.8 | – | O=Cc1cc(Br)c(Sc2ncccn2)o1 [AB00326733] | > 25 µg/mL
– | 4.62 | CCOC(=O)c1ccccc1NC(=O)c1cc(S(=O)(=O)N(CC)c2ccccc2)ccc1Cl [AB00718457] | > 50 µM
21.1 | – | Fc1cnc(N2CCOCC2)nc1N1CCc2ccccc21 [AB00362810] | > 25 µg/mL
14.3 | – | N#CCCCCN1c2cccc3cccc(c23)S1(=O)=O [AB00373143] | > 25 µg/mL
17.6 | – | Cc1cnc(NC(=O)c2ccc(Cl)cc2Cl)s1 [AB00276221] | > 25 µg/mL
23.6 | – | CCC(=O)Nc1ccc(-c2csc(N)n2)cc1 [AB00310808] | > 25 µg/mL
18.4 | – | COc1ccc(-c2ccc(-c3noc(-c4ccco4)n3)c(OC)n2)cc1 [AB00353001] | > 25 µg/mL
– | 4.82 | NCc1cn2ccccc2n1 [AB00877180] | > 50 µM
23.8 | – | CC(Oc1ccc(Cl)cc1Cl)C(=O)Nc1ccc(F)c(F)c1 (stereo not drawn) [AB00314248] | > 25 µg/mL
14.2 | – | CC(=O)CCc1c(O)nc2ccccc2c1C [AB00279389] | > 25 µg/mL
21.1 | – | COc1ccc(CN2C(=O)CC(Cc3ccccc3)C2=O)cc1 (stereo not drawn) [AB00307412] | > 25 µg/mL
12.6 | – | Cc1ccc2c(ccc3nc(C)ccc32)n1 [AB00278348] | > 25 µg/mL
12.7 | – | Cc1cc(C)n2nc(C(=O)Nc3cnn(C45CC6CC(CC(C6)C4)C5)c3)cc2n1 [AB00371387] | > 25 µg/mL
21.4 | – | CCOC(=O)c1ccc(NC(=O)NCCc2ccccc2OC)cc1 [AB00348268] | > 25 µg/mL
18.9 | – | CCn1c(COc2ccccc2OC)nc2ccccc21 [AB00296345] | > 25 µg/mL
17.5 | – | Cc1ccccc1C(=O)Nc1sc2c(c1C(=O)N1CCN(Cc3ccccc3)CC1)CCCCC2 [AB00284323] | > 25 µg/mL
– | 4.52 | COc1cc(SC)ccc1C(=O)Nc1ccc(C(=O)NC2CC2)cc1 [AB00797753] | > 50 µM
22.7 | – | Nc1ccc2oc(-c3cc(F)c(F)cc3Cl)nc2c1 [AB00311411] | > 25 µg/mL
14.1 | – | Cc1ccc(C(=O)Nc2ccc(OC(C)C)cc2)cc1C [AB00297482] | > 25 µg/mL
– | 4.95 | O=c1c2c([nH]c3ccccc13)-c1ccccc1-n1c(nc3ccccc3c1=O)C2 [AB00700560] | > 50 µM
– | 4.38 | O=C(c1cccc(OC(F)F)c1)N1CCc2cc([N+](=O)[O-])ccc21 [AB00764110] | > 50 µM
17.8 | – | O=C1c2ccccc2C(=O)N1CCCCN(C(=O)c1ccccc1[N+](=O)[O-])c1ccc(Cl)cc1 [AB00301378] | > 25 µg/mL
